Experimental data: US9249102B2 (priority 2012, dated 2016)
Like-named read-outs stand apart in the source and are kept apart here.

Key:
Haemonchus contortus = test: Method A: Haemonchus contortus L1 larvae, microtitre plate screen; conditions: 96 h, read-out: motility inhibition
Cooperia oncophora = test: Method C: Cooperia oncophora L1 larvae in vitro; conditions: 96 h, read-out: inhibition of motility
[1] = system: microfilaria of Dirofilaria immitis; test: Method F: microfilaria of Dirofilaria immitis, survival at 24 hours
[2] = survival of microfilaria at 24 hours

## CN(c1ccc([N+](=O)[O-])c(C(F)(F)F)c1)[C@H]1CC[C@H](OCC(=O)N2CCN(c3ccc4cc(Br)ccc4n3)CC2)CC1 [Compound 269, 2-[(4-[methyl-[4-nitro-3-(trifluoromethyl)phenyl]amino]cyclohexyl)-oxy]1-[4-(6-bromoquinolin-2-yl)piperazin-1-yl]ethan-1-one]
Haemonchus contortus
  inhibition at 5 µg/mL: ≥ 90%
Cooperia oncophora
  inhibition at 5 µg/mL: ≥ 90%
[1]; [2]
  EC50: < 5 µg/mL

## O=C(CO[C@H]1CC[C@H](Nc2ccc(S(=O)(=O)C(F)(F)F)cc2)CC1)N1CCN(c2ccc3cc(C(F)(F)F)ccc3n2)CC1 [Compound 331, 1-[4-[6-(trifluoromethyl)-2-quinolyl]piperazin-1-yl]-2-[4-[4-(trifluoromethylsulfonyl)anilino]cyclohexoxy]ethanone]
Haemonchus contortus
  inhibition at 5 µg/mL: ≥ 90%
Cooperia oncophora
  inhibition at 5 µg/mL: ≥ 90%

## CN(c1ccc(C#N)c(C(F)(F)F)c1)[C@H]1CC[C@H](OCC(=O)N2CCN(c3ccc4cc(Cl)ccc4n3)CC2)CC1 [Compound 282, 2-[(4-[methyl[4-cyano-3-(trifluoromethyl)phenyl]amino]cyclohexyl)-oxy]1-[4-(6-chloroquinolin-2-yl)-piperazin-1-yl]ethan-1-one]
Haemonchus contortus
  inhibition at 5 µg/mL: ≥ 90%
Cooperia oncophora
  inhibition at 5 µg/mL: ≥ 90%

## O=C(CO[C@H]1CC[C@H](Nc2ccc([N+](=O)[O-])c(C(F)(F)F)c2)CC1)N1CCN(CC2Cc3cc(Cl)ccc3O2)CC1 (some centres unmarked) [Compound 76, 1-[4-[(5-chloro-2,3-dihydro-1-benzofuran-2-yl)methyl]piperazin-1-yl]-2-[(4-[[4-nitro-3-(trifluoromethyl)phenyl]amino]cyclohexyl)oxy]ethan-1-one]
Haemonchus contortus
  inhibition at 5 µg/mL: ≥ 90%
Cooperia oncophora
  inhibition at 5 µg/mL: ≥ 90%
[1]
  EC50: < 5 µg/mL

## N#Cc1ccc(N[C@H]2CC[C@H](OCC(=O)N3CCN(c4ccc5cc(F)ccc5c4F)CC3)CC2)cc1C(F)(F)F [Compound 290, 4-(4-{2-[4-(1,6-difluoro-naphthalen-2-yl)-piperazin-1-yl]-2-oxo-ethoxy}-cyclohexylamino)-2-trifluoromethyl-benzonitrile]
Haemonchus contortus
  inhibition at 5 µg/mL: ≥ 90%
Cooperia oncophora
  inhibition at 5 µg/mL: ≥ 90%
[1]; [2]
  EC50: < 1 µg/mL

## CN(c1ccc(C#N)c(C(F)(F)F)c1)[C@H]1CC[C@H](OCC(=O)N2CCN(c3ccc4cc(Br)ccc4n3)CC2)CC1 [Compound 281, 2-[(4-[methyl[4-cyano-3-(trifluoromethyl)phenyl]amino]cyclohexyl)-oxy]-1-[4-(6-bromoquinolin-2-yl)piperazin-1-yl]ethan-1-one]
Haemonchus contortus
  inhibition at 5 µg/mL: ≥ 90%
Cooperia oncophora
  inhibition at 5 µg/mL: ≥ 90%

## O=C(CO[C@H]1CC[C@H](Nc2ccc([N+](=O)[O-])c(C(F)(F)F)c2)CC1)N1CCN(C(=O)c2cc3cc(C(F)(F)F)ccc3o2)CC1 [Compound 183, 2-[(4-[[4-nitro-3-(trifluoromethyl)phenyl]amino]cyclohexan-1-e)oxy]-1-(4-[[5-(trifluoromethyl)-1-benzofuran-2-yl]carbonyl]piperazin-1-yl)ethan-1-one]
Haemonchus contortus
  inhibition at 5 µg/mL: ≥ 90%
Cooperia oncophora
  inhibition at 5 µg/mL: ≥ 90%
[1]; [2]
  EC50: < 1 µg/mL

## O=C(CO[C@H]1CC[C@H](Nc2ccc([N+](=O)[O-])c(C(F)(F)F)c2)CC1)N1CCN(c2ccc3cc(Cl)ccc3n2)CC1 [Compound 90, 1-[4-(6-chloroquinolin-2-yl)piperazin-1-yl]-2-[(4-[[4-nitro-3-(trifluoromethyl)phenyl]amino]cyclohexyl)oxy]ethan-1-one]
Haemonchus contortus
  inhibition at 5 µg/mL: ≥ 90%
Cooperia oncophora
  inhibition at 5 µg/mL: ≥ 90%
[1]; [2]
  EC50: < 0.1 µg/mL

## O=C(CO[C@H]1CC[C@H](Nc2ccc([N+](=O)[O-])c(C(F)(F)F)c2)CC1)N1CCN(c2ccc3cc(F)ccc3c2F)CC1 [Compound 289, 1-[4-(1,6-difluoro-naphthalen-2-yl)-piperazin-1-yl]-2-[4-(4-nitro-3-trifluoromethyl-phenylamino)-cyclohexyloxy]-ethanone]
Haemonchus contortus
  inhibition at 5 µg/mL: ≥ 90%
Cooperia oncophora
  inhibition at 5 µg/mL: ≥ 90%

## O=C(COC1CCC(Nc2ccc([N+](=O)[O-])c(C(F)(F)F)c2)CC1)N1CCN(c2ccc3cc(Br)ccc3n2)CC1 (centres unmarked) [Compound 266, 2-[[4-[(4-nitro-3-trifluoromethyl-phenyl)amino]cyclohexyl]oxy]-1-[4-(6-bromoquinolin-2-yl)piperazin-1-yl]ethan-1-one]
Haemonchus contortus
  inhibition at 5 µg/mL: ≥ 90%
Cooperia oncophora
  inhibition at 5 µg/mL: ≥ 90%
[1]; [2]
  EC50: < 0.1 µg/mL

## Cc1cc(N2CCN(C(=O)CO[C@H]3CC[C@H](Nc4ccc([N+](=O)[O-])c(C(F)(F)F)c4)CC3)CC2)nc2ccc(F)cc12 [Compound 99, 1-[4-(6-fluoro-4-methyl-2-quinolyl)piperazin-1-yl]-2-[4-[4-nitro-3-(trifluoromethyl)anilino]cyclohexoxy]ethanone]
Haemonchus contortus
  inhibition at 5 µg/mL: ≥ 90%
Cooperia oncophora
  inhibition at 5 µg/mL: ≥ 90%
[1]; [2]
  EC50: < 1 µg/mL

## O=C(CO[C@H]1CC[C@H](Nc2ccc([N+](=O)[O-])c(C(F)(F)F)c2)CC1)N1CCN(Cc2cc3cc(OC(F)(F)F)ccc3o2)CC1 [Compound 326, 2-[(4-[[4-nitro-3-(trifluoromethyl)phenyl]amino]cyclohexyl)-oxy]1-[4-[5-(trifluoromethoxy)benzofuran-2-ylmethyl]piperazin-1-yl]ethan-1-one]
Haemonchus contortus
  inhibition at 5 µg/mL: ≥ 90%
Cooperia oncophora
  inhibition at 5 µg/mL: ≥ 90%

## N#Cc1ccc(N[C@H]2CC[C@H](OCC(=O)N3CCN(c4ccc5cc(Br)ccc5n4)CC3)CC2)cc1C(F)(F)F [Compound 271, 2-[(4-[[4-cyano-3-(trifluoromethyl)phenyl]amino]cyclohexyl)oxy]-1-[4-(6-bromoquinolin-2-yl)piperazin-1-yl]ethan-1-one]
Haemonchus contortus
  inhibition at 5 µg/mL: ≥ 90%
Cooperia oncophora
  inhibition at 5 µg/mL: ≥ 90%
[1]; [2]
  EC50: < 1 µg/mL

## CC(c1ccc2cc(F)ccc2c1)N1CCN(C(=O)CO[C@H]2CC[C@H](Nc3ccc([N+](=O)[O-])c(C(F)(F)F)c3)CC2)CC1 (some centres unmarked) [Compound 298, 2-[(4-[[4-nitro-3-(trifluoromethyl)phenyl]amino]cyclohexyl)-oxy]1-[4-[1-(6-fluoronaphthalen-2-yl)ethyl]piperazin-1-yl]ethan-1-one]
Haemonchus contortus
  inhibition at 5 µg/mL: ≥ 90%
Cooperia oncophora
  inhibition at 5 µg/mL: ≥ 90%
[1]; [2]
  EC50: < 1 µg/mL

## O=C(CO[C@H]1CC[C@H](Nc2ccc(S(=O)(=O)C(F)(F)F)cc2)CC1)N1CCN(Cc2nc3cc(C(F)(F)F)ccc3s2)CC1 [Compound 344, 1-[4-[[5-(trifluoromethyl)-1,3-benzothiazol-2-yl]methyl]piperazin-1-yl]-2-[4-[4-(trifluoromethylsulfonyl)anilino]cyclohexoxy]ethanone]
Haemonchus contortus
  inhibition at 5 µg/mL: ≥ 90%
Cooperia oncophora
  inhibition at 5 µg/mL: ≥ 90%

## C[C@@H]([C@H]1Cc2cc(F)ccc2O1)N1CCN(C(=O)COC2CCC(Nc3ccc([N+](=O)[O-])c(C(F)(F)F)c3)CC2)CC1 (relative stereo) [Compound 260, 1-(4-((S)-1-((R)-5-fluoro-2,3-dihydrobenzofuran-2-yl)ethyl)piperazin-1-yl)-2-(4-(4-nitro-3-(trifluoromethyl)phenylamino)cyclohexyloxy)ethanone]
Haemonchus contortus
  inhibition at 5 µg/mL: ≥ 90%
Cooperia oncophora
  inhibition at 5 µg/mL: ≥ 90%
[1]; [2]
  EC50: < 1 µg/mL

## CC(c1nc2cc(C(F)(F)F)ccc2s1)N1CCN(C(=O)CO[C@H]2CC[C@H](Nc3ccc([N+](=O)[O-])c(C(F)(F)F)c3)CC2)CC1 (some centres unmarked) [Compound 343, 2-[4-(4-nitro-3-trifluoromethyl-phenylamino)-cyclohexyloxy]-1-{4-[1-(5-trifluoromethyl-benzothiazol-2-yl)-ethyl]-piperazin-1-yl}-ethanone]
Haemonchus contortus
  inhibition at 5 µg/mL: ≥ 90%
Cooperia oncophora
  inhibition at 5 µg/mL: ≥ 90%

## CN(c1ccc([N+](=O)[O-])c(C(F)(F)F)c1)[C@H]1CC[C@H](OCC(=O)N2CCN(c3ccc4cc(Cl)ccc4n3)CC2)CC1 [Compound 246, 1-[4-(6-chloroquinolin-2-yl)piperazin-1-yl]-2-[[4-[methyl[4-nitro-3-(trifluoromethyl)phenyl]amino]cyclohexyl]oxy]ethan-1-one]
Haemonchus contortus
  inhibition at 5 µg/mL: ≥ 90%
Cooperia oncophora
  inhibition at 5 µg/mL: ≥ 90%
[1]
  EC50: < 1 µg/mL

## O=C(NCCOc1ccc(Nc2ccc([N+](=O)[O-])c(C(F)(F)F)c2)cc1)C(=O)NCC1Cc2cc(F)ccc2O1 (centres unmarked) [Compound 225, N^1-((5-fluoro-2,3-dihydrobenzofuran-2-yl)methyl)-N^2-(2-(4-(4-nitro-3-(trifluoromethyl)phenylamino)phenoxy)ethyl)oxalamide]
Haemonchus contortus
  inhibition at 5 µg/mL: ≥ 90%
[1]; [2]
  EC50: < 1 µg/mL

## O=[N+]([O-])c1ccc(N[C@H]2CC[C@H](OCC(=S)N3CCN(CC4Cc5cc(F)ccc5O4)CC3)CC2)cc1C(F)(F)F (some centres unmarked) [Compound 265, 1-[4-(5-fluoro-2,3-dihydro-benzofuran-2-ylmethyl)-piperazin-1-yl]-2-[4-(4-nitro-3-trifluoromethyl-phenylamino)-cyclohexyloxy]-ethanethione]
Haemonchus contortus
  inhibition at 5 µg/mL: ≥ 90%
[1]; [2]
  EC50: < 1 µg/mL

## O=C(NCCO[C@H]1CC[C@H](Nc2ccc([N+](=O)[O-])c(C(F)(F)F)c2)CC1)C(=O)NCC1Cc2cc(F)ccc2O1 (some centres unmarked) [Compound 217]
Haemonchus contortus
  inhibition at 5 µg/mL: ≥ 90%
[1]
  EC50: < 1 µg/mL

## O=C(CO[C@H]1CC[C@H](Nc2ccc([N+](=O)[O-])c(C(F)(F)F)c2)CC1)N1CCN(C(=O)c2cc3cc(Cl)ccc3o2)CC1 [Compound 181, 1-[4-[(5-chloro-1-benzofuran-2-yl)carbonyl]piperazin-1-yl]-2-[(4-[[4-nitro-3-(trifluoromethyl)phenyl]amino]cyclohexyl)oxy]ethan-1-one]
Haemonchus contortus
  inhibition at 5 µg/mL: ≥ 90%
[1]; [2]
  EC50: < 1 µg/mL

## O=C(CO[C@H]1CC[C@H](Nc2ccc([N+](=O)[O-])c(C(F)(F)F)c2)CC1)N1CCN(C(=O)C2Cc3cc(C(F)(F)F)ccc3O2)CC1 (some centres unmarked) [Compound 81, 2-[4-(4-nitro-3-trifluoromethyl-phenylamino)-cyclohexyloxy]-1-[4-(5-trifluoromethyl-2,3-dihydro-benzofuran-2-carbonyl)-piperazin-1-yl]-ethanone]
Haemonchus contortus
  inhibition at 5 µg/mL: ≥ 90%
[1]; [2]
  EC50: < 1 µg/mL

## CN(c1ccc([N+](=O)[O-])c(C(F)(F)F)c1)[C@H]1CC[C@H](OCC(=O)N2CCN(Cc3oc4ccc(C(F)(F)F)cc4c3Cl)CC2)CC1 [Compound 258, 1-(4-[[3-chloro-5-(trifluoromethyl)-1-benzofuran-2-yl]methyl]piperazin-1-yl)-2-[[4-[methyl[4-nitro-3-(trifluoromethyl)phenyl]amino]cyclohexyl]oxy]ethan-1-one]
Haemonchus contortus
  inhibition at 5 µg/mL: ≥ 90%
[1]; [2]
  EC50: < 1 µg/mL
